# PMC13469122, “Structural and mechanistic insights into primer synthesis initiation by DNA primase” (Nature Communications, 2026)
# Legend:
# [1] = target: T1, HBD (helix bundle domain) of pRN1 primase (Saccharolobus islandicus, UniProt Q54324); experiment: solution NMR; assay type: binding
# T1 construct: Helix bundle domain 261-370 plus linker 256-260; residual GHM (253-255) after TEV cleavage of N-terminal His6; E. coli BL21(DE3) CodonPlus, pET28c
# [2] = target: T2, primase (pRN1 primase, residues 40-370) (Saccharolobus islandicus, UniProt Q54324, H145A); experiment: solid-state hPH NMR (also NHHP, CHHP); assay type: binding; settings: with DNA^CT and ATP^N, 309 K; NTP^S site
# T2 construct: Catalytic domain, linker and helix bundle domain, residues 40-370; C-terminal His6 without cleavage site; E. coli BL21(DE3) CodonPlus, pET28c
# [3] = target: T3, primase (pRN1 primase, residues 40-370) (Saccharolobus islandicus, UniProt Q54324); experiment: solid-state hPH NMR; assay type: binding; settings: with DNA^CT; triphosphate at NTP^S site
# T3 construct: Catalytic domain, linker and helix bundle domain, residues 40-370; C-terminal His6 without cleavage site; E. coli BL21(DE3) CodonPlus, pET28c
# pRN1 primase H145A = target: T4, pRN1 primase H145A (Sulfolobus islandicus plasmid pRN1, UniProt Q54324 40-370, H145A); experiment: NMR (solid-state hPH, NHHP, CHHP); ATPN + dGTPC; 25 mM sodium phosphate, 50 mM NaCl, 10 mM MgCl2, pH 7.0; ITC and HBD NMR 298 K, primase NMR 313 K; settings: protein: recombinant; tags: C-terminal His6, not cleaved; single strand
# T4 sequence: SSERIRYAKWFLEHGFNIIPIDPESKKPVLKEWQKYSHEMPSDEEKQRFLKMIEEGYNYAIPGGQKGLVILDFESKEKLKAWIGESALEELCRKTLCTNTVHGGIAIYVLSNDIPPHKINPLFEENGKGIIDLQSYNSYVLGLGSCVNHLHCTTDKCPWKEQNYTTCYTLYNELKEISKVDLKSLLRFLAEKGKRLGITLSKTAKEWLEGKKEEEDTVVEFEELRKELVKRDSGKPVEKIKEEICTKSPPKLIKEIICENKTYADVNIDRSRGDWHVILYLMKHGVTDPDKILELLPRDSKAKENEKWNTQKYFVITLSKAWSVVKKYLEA
# [4] = target: T5, pRN1 primase helix bundle domain (HBD) (Sulfolobus islandicus plasmid pRN1, UniProt Q54324 256-370); experiment: ITC; 1 mM dGTP, 10 mM Mg2+; Kd not printed in the material; 25 mM sodium phosphate, 50 mM NaCl, 10 mM MgCl2, pH 7.0; ITC and HBD NMR 298 K, primase NMR 313 K; settings: protein: recombinant; tags: non-native GHM (numbered 253-255) left after TEV cleavage of N-terminal His6; single strand
# T5 sequence: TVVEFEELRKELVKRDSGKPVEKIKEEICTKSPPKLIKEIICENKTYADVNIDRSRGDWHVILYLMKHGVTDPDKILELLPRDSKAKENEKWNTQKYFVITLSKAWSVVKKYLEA
# T3 sequence (Q54324 entry or part of it): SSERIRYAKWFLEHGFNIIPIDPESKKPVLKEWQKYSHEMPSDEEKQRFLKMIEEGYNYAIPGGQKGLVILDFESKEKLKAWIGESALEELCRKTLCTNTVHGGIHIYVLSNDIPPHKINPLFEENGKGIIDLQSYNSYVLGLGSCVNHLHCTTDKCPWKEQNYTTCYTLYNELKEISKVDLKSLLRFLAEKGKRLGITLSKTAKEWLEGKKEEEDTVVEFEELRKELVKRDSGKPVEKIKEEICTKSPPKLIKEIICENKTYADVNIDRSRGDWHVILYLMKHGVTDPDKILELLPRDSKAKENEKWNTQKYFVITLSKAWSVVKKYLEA
molecule,measurement,setting,value
Nc1nc2c(ncn2[C@H]2C[C@H](O)[C@@H](COP(=O)(O)OP(=O)(O)OP(=O)(O)O)O2)c(=O)[nH]1 [dGTP],solution NMR,"[1]; with DNA^CT and ATP, NTP^S site",dGTP displaces ATP at the NTP^S site to base-pair with C1
Nc1ncnc2c1ncn2[C@@H]1O[C@H](COP(=O)(O)OP(=O)(O)OP(=O)(O)O)[C@@H](O)[C@H]1O [ATP],solution NMR,"[1]; with DNA^CT and dGTP, NTP^W site (displaced from NTP^S site by dGTP)",the second ATP remains bound at the NTP^W site without base-pairing with T2
Nc1nc2c(ncn2[C@H]2C[C@H](O)[C@@H](COP(=O)(O)OP(=O)(O)CP(=O)(O)O)O2)c(=O)[nH]1 [dGTP^C],"solid-state hPH NMR (also NHHP, CHHP)",[2],"ATP^N binds at the NTP^W site, while dGTP^C occupies the NTP^S site"
Nc1nc2c(ncn2[C@H]2C[C@H](O)[C@@H](COP(=O)(O)O[C@H]3[C@@H](O)[C@H](n4cnc5c(N)ncnc54)O[C@@H]3COP(=O)(O)OP(=O)(O)NP(=O)(O)O)O2)c(=O)[nH]1,solid-state hPH NMR,[3],the solid-state hPH NMR spectrum of the primase-DNA^CT-pNHppApG complex
CTGTGCTCA (ssDNA) [DNACT],binding result,pRN1 primase H145A,binds
same,binding signal,[4],~5 fold tighter GTG recognition than with ATP
